Experimental data as given in US20050020668A1, “Combination comprising S-[2-([[1-(2-ethylbutyl)cyclohexyl] carbonyl]amino)phenyl] 2-methylpropanethioate and an HMG CoA reductase inhibitor” (Japan Tobacco Inc., priority 2003, published 2005).
Marks after values point to notes of the source that are not given here.

What was measured:
[1] = system: patients with type II hyperlipidemia; experiment: Clinical study: Compound I added to pravastatin sodium therapy, lipid parameters; type: in vivo, human; conditions: for Mean percent change of HDL-C from levels before administration of Compound I / Mean percent change of LDL-C from levels before administration of Compound I / Mean percent change of LDL-C/HDL-C ratio from levels before administration of Compound I / Mean percent change of TC/HDL-C ratio from levels before administration of Compound I: Visit 5 or 6 vs average of Visits 3 and 4, per protocol
Excerpt: (§1) This example describes a multi-center, randomized, double-blind, placebo-controlled, parallel group study designed to evaluate the therapeutic effect of the combination of S-[2-([[1-(2-ethylbutyl)cyclohexyl]carbonyl]amino)phenyl]2-methylpropanethioate (Compound I) and pravastatin sodium in patients with hyperlipidemia.
Approximately 200 patients with type II hyperlipidemia were enrolled in the study to ensure that about 150 patients (about 50 patients per treatment group) completed the study. The patients met the following criteria: • (i) LDL-C>4.0 mmol/L (160 mg/dL), • (ii) HDL-C<1.6 mmol/L (60 mg/dL), • (iii) triglycerides<4.5 mmol/L (400 mg/dL), and • (iv) age 18-65 years.
(§2) The total study duration was 16 weeks, which consisted of three periods. During Period 1, the first 8 weeks of the study, 40 mg of pravastatin sodium was taken once daily at bedtime by all enrolled patients. Patients were then randomized to receive placebo or 300 mg or 600 mg of Compound I once daily following breakfast for Period 2, the next 4-week period, in addition to the continued pravastatin sodium treatment. During Period 3, the last 4 weeks of the study, pravastatin sodium was administered alone.
Each pravastatin sodium tablet comprised 40 mg of pravastatin sodium that was provided as a branded commercial product (Selektine™, Bristol-Myers Squibb B.V.). Each Compound I tablet contained 300 mg of Compound I and was supplied as a white oval tablet that is identical in appearance to the placebo tablet. The uncoated white tablets comprising Compound I were prepared using standard tableting procedures. The tablets comprised 300 mg of Compound I, 18 mg of hydroxypropylmethyl cellulose 2910 as a binder, 18 mg of talc and 1.2 mg of magnesium stearate as lubricants, and 119.8 mg of crospovidone and 90 mg of low-substituted hydroxypropyl cellulose as disintegrants.
All patients received 2 uncoated white tablets, such that each patient received either (a) one 300 mg Compound I tablet and one placebo tablet, (b) two 300 mg Compound I tablets, or (c) two placebo tablets during Period 2.
(§3) Blood samples were taken at Visit 1 (−10 weeks relative to commencement of treatment with Compound I or placebo) to determine eligibility, and at Visit 2 (−8 weeks; commencement of treatment with pravastatin sodium), Visit 3 (−2 weeks), Visit 4 (commencement of treatment with Compound I or placebo), Visit 5 (+2 weeks after commencement of treatment with Compound I or placebo), Visit 6 (+4 weeks; end of treatment with Compound I or placebo), and Visit 7 (+8 weeks; end of treatment with pravastatin sodium). Each blood sample was tested for levels of lipid parameters (e.g., total cholesterol, triglycerides, HDL-C, LDL-C), CETP activity and mass, the plasma concentration of Compound I (trough level), as well as laboratory safety parameters (e.g., urinalysis, biochemistry, and hematology).
Efficacy analyses included both descriptive summary and statistical modeling, such as analysis of variance (ANOVA) or analysis of covariance (ANCOVA). The descriptive summary included frequencies and percentages for categorical variables and statistics such as the number of available observations, mean, median, standard deviation, minimum, and maximum for all variables.
To determine the effect of the administration of Compound I on a patient receiving HMG CoA reductase inhibitor therapy, the mean values of HDL-C, LDL-C, TC/HDL-C ratio, LDL-C/HDL-C ratio, and CETP activity before administration of Compound I (average of values at Visits 3 and 4) and after the administration of Compound I (Visit 5 or 6) were compared. An ANOVA model containing treatment and center effects was used. […]

[2] = system: male Japanese white rabbits receiving a high-cholesterol diet; experiment: Atherogenic index in rabbits receiving a high-cholesterol diet; type: in vivo, rabbit; conditions: control group = 100%, in 0.2% cholesterol diet for 7 days: Compound I 0.5%
Protocol: Prior to commencement of the study, male Japanese white rabbits (KITAYAMA LABES Co., Ltd.) received a normal diet (RC-4, manufactured by Oriental Bio-Service Inc.) (Time Period 1) and water ad libitum. For preliminary feeding, male Japanese white rabbits were provided with a high cholesterol diet comprising 100 g/day per rabbit of RC-4 containing 0.2% cholesterol (manufactured by Oriental Bio-Service Inc.) for 4 weeks (Time Period 2). […] For 7 days (Time Period 3), each group was administered a high cholesterol diet comprising 100 g/day per rabbit of RC-4 containing 0.2% cholesterol and one of the following: • (1) Control (no additional components) • (2) Compound I (0.5%) • (3) Simvastatin (extracted and purified from LipovasTM Tablets-5, Banyu Pharmaceutical Co.) (0.075%) • (4) Atorvastatin calcium trihydrate (extracted and purified from LipitorTM Tablets-10, Pfizer Inc.) (0.075%) • (5) Rosuvastatin calcium (extracted and purified from CrestorTM Tablets, Astra Zeneca) (0.025%) • (6) Compound I (0.5%)+simvastatin (0.075%) • (7) Compound I (0.5%)+atorvastatin calcium trihydrate (0.075%) • (8) Compound I (0.5%)+rosuvastatin calcium (0.025%) […] Atherogenic index was calculated as follows: [(total cholesterol content-HDL cholesterol content)/HDL cholesterol content]. […] A similar experiment was conducted to evaluate the effect of the administration of Compound I and pravastatin sodium ([…] Ltd.) on 12-week old male Japanese white rabbits receiving a high-cholesterol diet.

CETP = molecular target: T1, CETP (Homo sapiens, UniProt P11597); experiment: Clinical study: Compound I added to pravastatin sodium therapy, CETP activity in blood samples; type: in vivo; conditions: for Mean percent change of CETP activity from levels before administration of Compound I: Visit 5 or 6 vs average of Visits 3 and 4, per protocol; for Decrease in CETP activity relative to levels achieved by pravastatin sodium alone: patients receiving pravastatin sodium therapy
T1 construct: from tissue; host or cells: blood (plasma) samples of hyperlipidemic patients
T1 sequence (P11597 18-493): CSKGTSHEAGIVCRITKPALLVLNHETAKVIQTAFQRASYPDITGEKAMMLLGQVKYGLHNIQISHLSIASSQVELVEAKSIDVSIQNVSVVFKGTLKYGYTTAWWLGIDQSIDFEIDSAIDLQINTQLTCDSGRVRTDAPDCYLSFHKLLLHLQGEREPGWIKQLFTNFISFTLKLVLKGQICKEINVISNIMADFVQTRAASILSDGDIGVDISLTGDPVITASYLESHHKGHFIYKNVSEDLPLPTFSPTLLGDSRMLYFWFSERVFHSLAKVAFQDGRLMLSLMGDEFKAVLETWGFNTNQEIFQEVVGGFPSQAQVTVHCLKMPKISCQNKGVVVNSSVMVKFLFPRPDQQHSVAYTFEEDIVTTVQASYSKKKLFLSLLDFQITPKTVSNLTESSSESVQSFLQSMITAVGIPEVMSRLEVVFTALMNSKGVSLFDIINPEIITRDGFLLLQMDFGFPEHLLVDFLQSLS
Protocol: CETP activity is measured essentially as described in Tollefson et al., Methods Enzymol., 129, 797-816 (1986), and Kato et al., J. Biol. Chem., 264, 4082-4087 (1989). Preferably, the CETP activity at 2 weeks (or 4 weeks, 8 weeks, 12 weeks, or six months) post-treatment initiation is decreased by about 5% or more relative to CETP activity pretreatment (e.g., about 7.5% or more, about 10% or more, about 15% or more, about 20% or more, about 25% or more, about 30% or more, about 35% or more, about 40% or more, about 45% or more, about 50% or more, about 55% or more, about 60% or more, or about 65% or more).
as §1, §2
as §3, with “hematology). […]” for “hematology).”
Table 2 describes the percent change in HDL-C, LDL-C, TC/HDL-C ratio, LDL-C/HDL-C ratio, and CETP activity from the values of patients receiving pravastatin sodium therapy (average of Visit 3 and 4 values) to the values following administration of Compound I or placebo and pravastatin sodium (Visit 5 or 6). P values were determined by comparing the groups administered Compound I to the placebo group using an ANOVA model with percent change as the dependent variable and treatment and center as the fixed effects. […]

[3] = 300 mg Compound I once daily + 40 mg pravastatin sodium, n = 45
[4] = 300 mg treatment group, patients receiving pravastatin sodium therapy
[5] = 600 mg Compound I once daily + 40 mg pravastatin sodium, n = 42
[6] = 600 mg treatment group, patients receiving pravastatin sodium therapy
[7] = Table 3 experiment, simvastatin 0.075%, atorvastatin calcium trihydrate 0.075%, rosuvastatin calcium 0.025%, blood 8 hours after feeding on Day 7
[8] = Table 4 experiment, pravastatin sodium 0.075%

CCC(CC)CC1(C(=O)Nc2ccccc2SC(=O)C(C)C)CCCCC1 [Compound I, S-[2-([[1-(2-ethylbutyl)cyclohexyl]carbonyl]amino)phenyl]2-methylpropanethioate]
Mean percent change of HDL-C from levels before administration of Compound I [1, 3]: 12.96* %
Mean percent change of LDL-C from levels before administration of Compound I [1, 3]: 1.57%
Mean percent change of LDL-C/HDL-C ratio from levels before administration of Compound I [1, 3]: −10.31^† %
Mean percent change of TC/HDL-C ratio from levels before administration of Compound I [1, 3]: −8.09^† %
Decrease in LDL-C/HDL-C ratio relative to levels achieved by pravastatin sodium alone [1, 4]: about 10%
Decrease in TC/HDL-C ratio relative to levels achieved by pravastatin sodium alone [1, 4]: about 8%
Increase in HDL-C levels relative to levels achieved by pravastatin sodium alone [1, 4]: about 13%
Mean percent change of HDL-C from levels before administration of Compound I [1, 5]: 28.43* %
Mean percent change of LDL-C from levels before administration of Compound I [1, 5]: −7.91^‡ %
Mean percent change of LDL-C/HDL-C ratio from levels before administration of Compound I [1, 5]: −26.03* %
Mean percent change of TC/HDL-C ratio from levels before administration of Compound I [1, 5]: −18.72* %
Decrease in LDL-C levels relative to level achieved by pravastatin sodium alone [1, 6]: about 8%
Decrease in LDL-C/HDL-C ratio relative to levels achieved by pravastatin sodium alone [1, 6]: about 26%
Decrease in TC/HDL-C ratio relative to levels achieved by pravastatin sodium alone [1, 6]: about 19%
Increase in HDL-C levels relative to levels achieved by pravastatin sodium alone [1, 6]: about 28%
Atherogenic Index (%) [2, 7]: 54%
Atherogenic Index (%) [2, 8]: 60%
Mean percent change of CETP activity from levels before administration of Compound I (CETP; [3]): −18.10* %
Decrease in CETP activity relative to levels achieved by pravastatin sodium alone (CETP; 300 mg treatment group): about 18%
Mean percent change of CETP activity from levels before administration of Compound I (CETP; [5]): −31.62* %
Decrease in CETP activity relative to levels achieved by pravastatin sodium alone (CETP; 600 mg treatment group): about 32%

CC(C)c1nc(N(C)S(C)(=O)=O)nc(-c2ccc(F)cc2)c1/C=C/[C@@H](O)C[C@@H](O)CC(=O)[O-].CC(C)c1nc(N(C)S(C)(=O)=O)nc(-c2ccc(F)cc2)c1/C=C/[C@@H](O)C[C@@H](O)CC(=O)[O-].[Ca+2] [Rosuvastatin calcium]
Atherogenic Index (%) [2, 7]: 81%

CC(C)c1c(C(=O)Nc2ccccc2)c(-c2ccccc2)c(-c2ccc(F)cc2)n1CC[C@@H](O)C[C@@H](O)CC(=O)O [Atorvastatin calcium trihydrate]
Atherogenic Index (%) [2, 7]: 49%

CCC(C)(C)C(=O)O[C@H]1C[C@@H](C)C=C2C=C[C@H](C)[C@H](CC[C@@H]3C[C@@H](O)CC(=O)O3)[C@H]21 [Simvastatin]
Atherogenic Index (%) [2, 7]: 51%

CC[C@H](C)C(=O)O[C@H]1C[C@H](O)C=C2C=C[C@H](C)[C@H](CC[C@@H](O)C[C@@H](O)CC(=O)O)[C@H]21 [Pravastatin sodium]
Atherogenic Index (%) [2, 8]: 40%
